Patent publication US20230233569A1 (Revolution Medicines, Inc., priority 2020, published 2023)
Values joined by “and” are separate entries in the source; they are usually repeats but may differ in a detail not shown here. Identical values can stand only once.

What was measured:
[1] = test system: K-Ras G12C (NCI-H358 cells); assay: Potency assay: pERK (AlphaLISA SureFire or In-Cell Western); format: cell-based; details: Homo sapiens, NCI-H358; H358 KRAS G12C; read-out: pERK EC50
Protocol: (§1) The purpose of this assay is to measure the ability of test compounds to inhibit K-Ras in cells. […] This procedure measures a decrease in cellular pERK in response to test compounds.
(§2) NCI-H358 cells were grown and maintained using media and procedures recommended by the ATCC. On the day prior to compound addition, cells were plated in 384-well cell culture plates (40 μl/well) and grown overnight in a 37° C., 5% CO2 incubator. Test compounds were prepared in 10, 3-fold dilutions in DMSO, with a high concentration of 10 mM. On the day of assay, 40 nL of test compound was added to each well of cell culture plate using an Echo550 liquid handler (LabCyte®). Concentrations of test compound were tested in duplicate. After compound addition, cells were incubated 4 hours at 37° C., 5% CO2. Following incubation, culture medium was removed and cells were washed once with phosphate buffered saline.
(§3) In some experiments, cellular pERK level was determined using the AlphaLISA SureFire Ultra p-ERK1/2 Assay Kit (PerkinElmer). Cells were lysed in 25 μL lysis buffer, with shaking at 600 RPM at room temperature. […] After a 2-hour incubation in the dark, 5 μL donor mix was added, plate was sealed, and incubated 2 hours at room temperature. Signal was read on an Envision plate reader (PerkinElmer) using standard AlphaLISA settings. Analysis of raw data was carried out in Excel (Microsoft) and Prism (GraphPad). Signal was plotted vs. the decadal logarithm of compound concentration, and IC50 was determined by fitting a 4-parameter sigmoidal concentration response model.
In other experiments, cellular pERK was determined by In-Cell Western. […] Fixed cells were washed 4 times for 5 minutes with TBS containing 0.1% Triton X-100 (TBST) and then blocked with 100 μL Odyssey blocking buffer (LI-COR) for 60 minutes at room temperature. […] Cells were washed 4 times for 5 minutes with TBST. Secondary antibody (IR-800CW rabbit, LI-COR, diluted 1:800) and DNA stain DRAQ5 (LI-COR, diluted 1:2000) were added and incubated 1-2 hours at room temperature. Cells were washed 4 times for 5 minutes with TBST. Plates were scanned on a LI-COR Odyssey CLx Imager. Analysis of raw data was carried out in Excel (Microsoft) and Prism (GraphPad). Signal was plotted vs. the decadal logarithm of compound concentration, and IC50 was determined by fitting a 4-parameter sigmoidal concentration response model.
as §1
as §2, with “mM. On day of” for “mM. On the day of”, “assay, 40 nl of test” for “assay, 40 nL of test”
as §3, with “μl” for “μL”, “sealed” for “sealed,”

[2] = test system: NCI-H358 (K-Ras G12C); assay: CellTiter-Glo cell viability assay, 5-day treatment; format: cell-based; details: Homo sapiens, NCI-H358, H358, K-Ras G12C; read-out: Additional H358 Cell Viability assay data (K-Ras G12C, IC50)
In short: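 Compounds were dispensed directly onto seeded cells and incubated for 5 days, then plates were equilibrated to room temperature for about 30 minutes before luminescence reading. Signals were expressed as percent of the mean DMSO control and fitted with a four-parameter logistic curve.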

[3] = biological target: KRAS G12C (Homo sapiens, UniProt P01116+P62937, G12C); assay: Disruption of BRAF RBD interaction with Ras (FRET / MOA assay, with Cyclophilin A); format: biochemical; details: KRAS G12C; read-out: KRAS G12C FRET data IC50
Sequence of KRAS G12C (P01116 1-169 isoform P01116-2 G12C): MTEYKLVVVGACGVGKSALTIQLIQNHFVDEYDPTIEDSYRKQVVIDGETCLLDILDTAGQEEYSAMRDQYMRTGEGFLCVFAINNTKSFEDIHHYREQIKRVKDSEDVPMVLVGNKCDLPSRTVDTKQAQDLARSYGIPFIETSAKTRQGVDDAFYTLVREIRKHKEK
Sequence of KRAS G12C (P62937 whole entry): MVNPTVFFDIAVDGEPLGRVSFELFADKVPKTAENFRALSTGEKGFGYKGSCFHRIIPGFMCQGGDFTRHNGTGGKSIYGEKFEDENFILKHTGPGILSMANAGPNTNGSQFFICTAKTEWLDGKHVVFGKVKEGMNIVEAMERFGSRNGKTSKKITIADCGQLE
In short: (§4)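 Compound-driven ternary complex formation between nucleotide-loaded K-Ras and Cyclophilin A was measured as loss of BRAF RBD binding. Compounds (10-point 3-fold series, top 30 μM final) were incubated 3 h at 25 °C, then anti-His Eu-W1024 (10 nM) and anti-GST allophycocyanin (50 nM) added for 1.5 h. IC50 was taken from the TR-FRET ratio decrease versus DMSO.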

[4] = biological target: KRAS G12D (Homo sapiens, UniProt P01116+P62937, G12D); assay: as above; format: biochemical; details: read-out: KRAS G12D FRET data, IC50
Sequence of KRAS G12D (P01116 1-169 isoform P01116-2 G12D limits assumed): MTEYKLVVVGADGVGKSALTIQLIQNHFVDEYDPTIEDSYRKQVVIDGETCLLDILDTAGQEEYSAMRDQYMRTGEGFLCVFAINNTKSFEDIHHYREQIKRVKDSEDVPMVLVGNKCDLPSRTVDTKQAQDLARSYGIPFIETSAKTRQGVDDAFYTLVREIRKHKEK
Sequence of KRAS G12D (P62937 whole entry): as the sequence (P62937 whole entry) above
In short: as §4

[5] = biological target: KRAS G12S (Homo sapiens, UniProt P01116+P62937, G12S); assay: as above; format: biochemical; details: read-out: KRAS G12S FRET data, IC50
Sequence of KRAS G12S (P01116 1-169 isoform P01116-2 G12S limits assumed): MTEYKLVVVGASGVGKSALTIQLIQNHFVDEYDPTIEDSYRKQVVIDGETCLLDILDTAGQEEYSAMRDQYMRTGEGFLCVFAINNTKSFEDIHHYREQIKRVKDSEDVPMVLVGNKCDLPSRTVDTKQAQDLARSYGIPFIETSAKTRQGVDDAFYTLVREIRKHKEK
Sequence of KRAS G12S (P62937 whole entry): as the sequence (P62937 whole entry) above
In short: as §4

[6] = biological target: KRAS G12V (Homo sapiens, UniProt P01116+P62937, G12V); assay: as above; format: biochemical; details: KRAS G12V; read-out: KRAS G12V FRET data IC50
Sequence of KRAS G12V (P01116 1-169 isoform P01116-2 G12V limits assumed): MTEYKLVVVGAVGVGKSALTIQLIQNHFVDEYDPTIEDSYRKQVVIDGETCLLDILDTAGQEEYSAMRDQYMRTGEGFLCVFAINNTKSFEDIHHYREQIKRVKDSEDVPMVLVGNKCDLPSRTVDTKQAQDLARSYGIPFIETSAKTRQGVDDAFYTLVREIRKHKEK
Sequence of KRAS G12V (P62937 whole entry): as the sequence (P62937 whole entry) above
In short: as §4

[7] = biological target: KRAS G13C (Homo sapiens, UniProt P01116+P62937, G13C); assay: as above; format: biochemical; details: KRAS G13C; read-out: KRAS G13C FRET data IC50
Sequence of KRAS G13C (P01116 1-169 isoform P01116-2 G13C): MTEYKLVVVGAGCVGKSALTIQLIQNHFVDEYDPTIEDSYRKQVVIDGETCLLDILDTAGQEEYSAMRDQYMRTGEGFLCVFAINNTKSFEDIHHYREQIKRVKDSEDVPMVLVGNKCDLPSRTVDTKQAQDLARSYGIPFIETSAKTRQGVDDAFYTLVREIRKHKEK
Sequence of KRAS G13C (P62937 whole entry): as the sequence (P62937 whole entry) above
In short: as §4

[8] = biological target: KRAS G13D (Homo sapiens, UniProt P01116+P62937, G13D); assay: as above; format: biochemical; details: KRAS G13D; read-out: KRAS G13D FRET data IC50
Sequence of KRAS G13D (P01116 1-169 isoform P01116-2 G13D limits assumed): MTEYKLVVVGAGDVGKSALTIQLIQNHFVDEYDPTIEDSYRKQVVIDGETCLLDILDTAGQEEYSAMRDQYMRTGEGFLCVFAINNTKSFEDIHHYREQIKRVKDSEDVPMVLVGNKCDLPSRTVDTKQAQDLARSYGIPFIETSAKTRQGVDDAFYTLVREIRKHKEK
Sequence of KRAS G13D (P62937 whole entry): as the sequence (P62937 whole entry) above
In short: as §4

[9] = biological target: KRAS WT (Homo sapiens, UniProt P01116+P62937); assay: as above; format: biochemical; details: KRAS WT; read-out: KRAS WT FRET data IC50
Sequence of KRAS WT (P01116 1-169 isoform P01116-2 limits assumed): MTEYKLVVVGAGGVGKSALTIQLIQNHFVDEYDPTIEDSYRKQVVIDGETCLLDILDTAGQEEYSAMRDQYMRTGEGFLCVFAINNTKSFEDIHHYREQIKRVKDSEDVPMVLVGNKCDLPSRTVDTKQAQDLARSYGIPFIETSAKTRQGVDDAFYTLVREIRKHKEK
Sequence of KRAS WT (P62937 whole entry): as the sequence (P62937 whole entry) above
In short: as §4

[10] = biological target: NRAS G12C (Homo sapiens, UniProt P01111+P62937, G12C); assay: as above; format: biochemical; details: NRAS G12C; read-out: NRAS G12C FRET data IC50
Sequence of NRAS G12C (P01111 whole entry G12C): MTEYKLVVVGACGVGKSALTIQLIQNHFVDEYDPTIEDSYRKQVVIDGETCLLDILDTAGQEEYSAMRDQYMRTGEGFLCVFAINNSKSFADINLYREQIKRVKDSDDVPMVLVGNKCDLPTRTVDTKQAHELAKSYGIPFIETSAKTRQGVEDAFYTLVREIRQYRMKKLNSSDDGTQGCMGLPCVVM
Sequence of NRAS G12C (P62937 whole entry): as the sequence (P62937 whole entry) above

SMILES | EC50 [1] [µM] | IC50 [2] [nM] | IC50 [3] | IC50 [4] | IC50 [5] | IC50 [6] | IC50 [7] | IC50 [8] | IC50 [9] | IC50 [10]
CCn1c(-c2cncnc2)c2c3cc(ccc31)-c1cc(O)cc(c1)C[C@H](NC(=O)[C@H](C(C)C)N(C)C(=O)[C@H]1CCN(C(=O)C#CCN(C)C)C1)C(=O)N1CCC[C@H](N1)C(=O)OCC(C)(C)C2 [Example A108] | < 5 | < 10 | < 10 nM | 1 to 10 µM | 1000 to 10000 nM | 1000 to 10000 nM | 10 to 100 nM | 1000 to 10000 nM | 1000 to 10000 nM | < 10 nM
C=CC(=O)N1CC[C@H](C(=O)N(C)[C@H](C(=O)N[C@H]2Cc3cc(O)cc(c3)-c3ccc4c(c3)c(c(-c3cc(CN(C)C)cnc3COC)n4CC)CC(C)(C)COC(=O)[C@@H]3CCCN(N3)C2=O)C(C)C)C1 [Example A149] | < 5 | 10 to 100 | 10 to 100 nM | 1 to 10 µM | 100 to 1000 nM | 100 to 1000 nM | 100 to 1000 nM | 100 to 1000 nM | 100 to 1000 nM | 10 to 100 nM
CCn1c(-c2cccnc2COC)c2c3cc(ccc31)-c1cc(O)cc(c1)C[C@H](NC(=O)[C@@H](C(C)C)N(C)C(=O)[C@H]1CCN(C(=O)C#CCN(C)C)C1)C(=O)N1CCC[C@H](N1)C(=O)OCC(C)(C)C2 [Example A156] | < 5 | 10 to 100 | 10 to 100 nM | 1 to 10 µM | > 10000 nM | > 10000 nM | 1000 to 10000 nM | 1000 to 10000 nM | > 10000 nM | 100 to 1000 nM
CCn1c(-c2cccnc2COC)c2c3cc(ccc31)-c1cc(O)cc(c1)C[C@H](NC(=O)[C@H](C(C)C)N(C)C(=O)[C@H]1CCN(C(=O)C#CC(C)(C)N(C)C)C1)C(=O)N1CCC[C@H](N1)C(=O)OCC(C)(C)C2 [Example A162] | < 5 | < 10 | < 10 nM | 1 to 10 µM | 1000 to 10000 nM | 100 to 1000 nM | 100 to 1000 nM | 1000 to 10000 nM | 1000 to 10000 nM | < 10 nM
CCn1c(-c2cccnc2COC)c2c3cc(ccc31)-c1cc(O)cc(c1)C[C@H](NC(=O)[C@H](C(C)C)N(C)C(=O)[C@H]1CCN(C(=O)/C=C\CN(C)C)C1)C(=O)N1CCC[C@H](N1)C(=O)OCC(C)(C)C2 [Example A164] | < 5 | 100 to 1000 | 10 to 100 nM | 1 to 10 µM | 100 to 1000 nM | 100 to 1000 nM | 100 to 1000 nM | 100 to 1000 nM | 100 to 1000 nM | 10 to 100 nM
C=CC(=O)N1CC(NC[C@H](C(=O)N[C@H]2Cc3cc(O)cc(c3)-c3ccc4c(c3)c(c(-c3cccnc3COC)n4CC)CC(C)(C)COC(=O)[C@@H]3CCCN(N3)C2=O)C(C)C)C1 [Example A174] | < 5 | > 1000 | 100 to 1000 nM | > 10 µM | > 10000 nM | > 10000 nM | 1000 to 10000 nM | > 10000 nM | > 10000 nM | 1000 to 10000 nM
CCn1c(-c2cccnc2[C@H](C)OC)c2c3cc(ccc31)-c1cc(O)cc(c1)C[C@H](NC(=O)[C@H](C(C)C)N(C)C(=O)[C@H]1CCN(C(=O)C#CCN3CCOCC3)C1)C(=O)N1CCC[C@H](N1)C(=O)OCC(C)(C)C2 [Example A182] | < 5 | 10 to 100 | 10 to 100 nM and < 10 nM | 1 to 10 µM and > 10 µM | 100 to 1000 nM and 1000 to 10000 nM | 100 to 1000 nM and 1000 to 10000 nM | 1000 to 10000 nM and 10 to 100 nM | 100 to 1000 nM and 1000 to 10000 nM | 100 to 1000 nM and 1000 to 10000 nM | 10 to 100 nM and < 10 nM
C=CC(=O)N1CC[C@H](C(=O)N(C)[C@H](C(=O)N[C@H]2Cc3cc(O)cc(c3)-c3ccc4c(c3)c(c(-c3cccnc3[C@H](C)OC)n4C)CC(C)(C)COC(=O)[C@@H]3CCCN(N3)C2=O)C(C)C)C1 [Example A197] | < 5 | 10 to 100 | 100 to 1000 nM | > 10 µM | 1000 to 10000 nM | 1000 to 10000 nM | 1000 to 10000 nM | 1000 to 10000 nM | 1000 to 10000 nM | 100 to 1000 nM
CCn1c(-c2cccnc2COC)c2c3cc(ccc31)-c1cc(O)cc(c1)C[C@H](NC(=O)[C@@H](C(C)C)N(C)C(=O)[C@H]1CCN(C(=O)C#CC(C)N3CCOCC3)C1)C(=O)N1CCC[C@H](N1)C(=O)OCC(C)(C)C2 (stereo partly drawn) [Example A200] | < 5 | 100 to 1000 | 10 to 100 nM | > 10 µM | > 10000 nM | > 10000 nM | 1000 to 10000 nM | > 10000 nM | > 10000 nM | 10 to 100 nM
